Results taken from patent US20040097595A1, “Phthalamide derivatives, insecticides for agricultural and horticultural use and method for application thereof” (priority 2001, published 2004).

Legend:
Type in all cases: in vivo
[1] = test system: Diamond Back Moth (Plutella xylostella); test: Test Example 1: insecticidal effect on diamond back moth, Chinese cabbage seedling with eggs immersed in liquid chemical; conditions: eggs on Chinese cabbage seedling immersed about 30 seconds, six days after immersion, 25° C.
From the text: Insecticidal Effect on Diamond Back Moth (Plutella xylostella)
Adult diamond back moths were released and allowed to oviposit on a Chinese cabbage seedling. Two days after the release, the seedling having the eggs deposited thereon was immersed for about 30 seconds in a liquid chemical prepared by diluting a preparation containing each compound listed in Table 1 or 2 as an active ingredient to adjust the prescribed concentration. After air-dryness, it was allowed to stand in a room thermostatted at 25° C. Six days after the immersion, the hatched insects were counted. The mortality was calculated according to the following equation and the insecticidal effect was judged according to the criterion shown below. The test was carried out with triplicate groups of 10 insects. [formula]

[2] = test system: Common Cutworm (Spodoptera litura); test: Test Example 2: insecticidal effect on common cutworm, cabbage leaf immersion; conditions: cabbage leaf immersed, second-instar larvae, eight days after inoculation, 25° C.
From the text: (§1) Insecticidal Effect on Common Cutworm (Spodoptera litura)
A piece of cabbage leaf (cultivar; Shikidori) was immersed for about 30 seconds in a liquid chemical prepared by diluting a preparation containing each compound listed in Table 1 or 2 as an active ingredient to adjust the prescribed concentration. After air-dryness, it was placed in a plastic Petri dish with a diameter of 9 cm and inoculated with second-instar larvae of common cutworm, after which the dish was closed and then allowed to stand in a room thermostatted at 25° C. Eight days after the inoculation, the dead and alive were counted. The mortality was calculated according to the following equation and the insecticidal effect was judged according to the criterion shown in Test Example 1. The test was carried out with triplicate groups of 10 insects. [formula]

[3] = test system: Common Cutworm (Spodoptera litura); test: Comparative Test Example 1: insecticidal effect on common cutworm, treated synthetic diet; conditions: 192 h, synthetic diet treated with 0.5 ml, third-instar larvae, eight days after inoculation
Protocol: as §1
A synthetic diet packed in a plastic Petri dish was treated with 0.5 ml of a liquid chemical prepared by diluting a preparation containing compound 1-51 as an active ingredient to adjust the prescribed concentration, by adding the liquid chemical dropwise to the synthetic diet. The synthetic diet was inoculated with third-instar larvae of common cutworm, after which the dish was closed and then allowed to stand in a room thermostatted at 25° C. Eight days after the inoculation, the dead and alive were counted, and the mortality was calculated according to the following equation. The test was carried out with triplicate groups of 10 insects. [formula]
The compounds described in JP-A-2001-131141 were used as comparative compounds as follows: […]

[4] = test system: Common Cutworm (Spodoptera litura); test: Comparative Example 2: insecticidal effect on common cutworm by soil treatment for cabbage; parameters: concentration or dose not given beside the values; conditions: granules in planting holes; leaf cut eleven days after transplanting; first-instar larvae; three days after inoculation
Protocol: Insecticidal Effect on Common Cutworm (Spodoptera litura) by Soil Treatment for Cabbage
At the time of trans-planting cabbage plants (cultivar: YR Seitoku), planting holes were treated with granules prepared from compound 1-51 according to Formulation Example. Eleven days after the transplanting, a leaf was cut off from the cabbage plant, placed in a plastic Petri dish, and then inoculated with 20 first-instar larvae of common cutworm. Thereafter, the dish was closed and then allowed to stand in a room thermostatted at 25° C. Three days after the inoculation, the dead and alive were counted and the mortality was calculated in the same manner as in Comparative Test Example 1.

CC(C)(CS(C)(=O)=O)NC(=O)c1c(I)cccc1C(=O)Nc1ccc(OC(F)(F)C(F)OC(F)(F)F)cc1Cl (stereo not shown) [Compound 1-76]
Test Example 1 insecticidal effect (mortality grade) ([1]; 5 ppm): A (Mortality 100%)
Test Example 1 insecticidal effect (mortality grade) ([1]; 50 ppm): A (Mortality 100%)
Test Example 2 insecticidal effect (mortality grade) ([2]; 5 ppm): E (Mortality 49-0%)
Test Example 2 insecticidal effect (mortality grade) ([2]; 50 ppm): A (Mortality 100%)

CSCC(C)(C)NC(=O)c1c(I)cccc1C(=O)Nc1ccc(OC(F)(F)C(F)OC(F)(F)C(F)(F)C(F)(F)F)cc1Cl (stereo not shown) [Compound 1-81]
Test Example 1 insecticidal effect (mortality grade) ([1]; 5 ppm): A (Mortality 100%)
Test Example 1 insecticidal effect (mortality grade) ([1]; 50 ppm): A (Mortality 100%)
Test Example 2 insecticidal effect (mortality grade) ([2]; 5 ppm): A (Mortality 100%)
Test Example 2 insecticidal effect (mortality grade) ([2]; 50 ppm): A (Mortality 100%)

C[S+]([O-])CC(C)(C)NC(=O)c1c(I)cccc1C(=O)Nc1ccc(OC(F)(F)C(F)OC(F)(F)C(F)(F)C(F)(F)F)cc1Cl (stereo not shown) [Compound 1-82]
Test Example 1 insecticidal effect (mortality grade) ([1]; 5 ppm): A (Mortality 100%)
Test Example 1 insecticidal effect (mortality grade) ([1]; 50 ppm): A (Mortality 100%)
Test Example 2 insecticidal effect (mortality grade) ([2]; 5 ppm): C (Mortality 89-80%)
Test Example 2 insecticidal effect (mortality grade) ([2]; 50 ppm): A (Mortality 100%)

CC(C)(CS(C)(=O)=O)NC(=O)c1c(I)cccc1C(=O)Nc1ccc(OC(F)(F)C(F)OC(F)(F)C(F)(F)C(F)(F)F)cc1Cl (stereo not shown) [Compound 1-83]
Test Example 1 insecticidal effect (mortality grade) ([1]; 5 ppm): A (Mortality 100%)
Test Example 1 insecticidal effect (mortality grade) ([1]; 50 ppm): A (Mortality 100%)
Test Example 2 insecticidal effect (mortality grade) ([2]; 5 ppm): A (Mortality 100%)
Test Example 2 insecticidal effect (mortality grade) ([2]; 50 ppm): A (Mortality 100%)

CSCC(C)(C)NC(=O)c1c(I)cccc1C(=O)Nc1ccc(OC(F)(F)C(F)OC(F)(F)C(F)(F)C(F)(F)F)c(Cl)c1Cl (stereo not shown) [Compound 1-84]
Test Example 1 insecticidal effect (mortality grade) ([1]; 5 ppm): E (Mortality 49-0%)
Test Example 1 insecticidal effect (mortality grade) ([1]; 50 ppm): A (Mortality 100%)
Test Example 2 insecticidal effect (mortality grade) ([2]; 5 ppm): E (Mortality 49-0%)
Test Example 2 insecticidal effect (mortality grade) ([2]; 50 ppm): A (Mortality 100%)

C[S+]([O-])CC(C)(C)NC(=O)c1c(I)cccc1C(=O)Nc1ccc(OC(F)(F)C(F)OC(F)(F)C(F)(F)C(F)(F)F)c(Cl)c1Cl (stereo not shown) [Compound 1-85]
Test Example 1 insecticidal effect (mortality grade) ([1]; 5 ppm): A (Mortality 100%)
Test Example 1 insecticidal effect (mortality grade) ([1]; 50 ppm): A (Mortality 100%)
Test Example 2 insecticidal effect (mortality grade) ([2]; 5 ppm): E (Mortality 49-0%)
Test Example 2 insecticidal effect (mortality grade) ([2]; 50 ppm): A (Mortality 100%)

CC(C)(CS(C)(=O)=O)NC(=O)c1c(I)cccc1C(=O)Nc1ccc(OC(F)(F)C(F)OC(F)(F)C(F)(F)C(F)(F)F)c(Cl)c1Cl (stereo not shown) [Compound 1-86]
Test Example 1 insecticidal effect (mortality grade) ([1]; 5 ppm): A (Mortality 100%)
Test Example 1 insecticidal effect (mortality grade) ([1]; 50 ppm): A (Mortality 100%)
Test Example 2 insecticidal effect (mortality grade) ([2]; 5 ppm): D (Mortality 79-50%)
Test Example 2 insecticidal effect (mortality grade) ([2]; 50 ppm): A (Mortality 100%)

CSCC(C)(C)NC(=O)c1c(I)cccc1C(=O)Nc1ccc(Oc2c(Cl)cc(C(F)(F)F)c(F)c2Cl)cc1Cl [Compound 1-93]
Test Example 1 insecticidal effect (mortality grade) ([1]; 5 ppm): A (Mortality 100%)
Test Example 1 insecticidal effect (mortality grade) ([1]; 50 ppm): A (Mortality 100%)
Test Example 2 insecticidal effect (mortality grade) ([2]; 5 ppm): E (Mortality 49-0%)
Test Example 2 insecticidal effect (mortality grade) ([2]; 50 ppm): C (Mortality 89-80%)

CSCC(C)(C)NC(=O)c1c(I)cccc1C(=O)Nc1ccc(Oc2ccc(C(F)(F)F)cn2)cc1Cl [Compound 1-94]
Test Example 1 insecticidal effect (mortality grade) ([1]; 5 ppm): A (Mortality 100%)
Test Example 1 insecticidal effect (mortality grade) ([1]; 50 ppm): A (Mortality 100%)
Test Example 2 insecticidal effect (mortality grade) ([2]; 5 ppm): E (Mortality 49-0%)
Test Example 2 insecticidal effect (mortality grade) ([2]; 50 ppm): A (Mortality 100%)

CSCC(C)(C)NC(=O)c1c(I)cccc1C(=O)Nc1ccc(Oc2ncc(C(F)(F)F)cc2Cl)cc1Cl [Compound 1-95]
Test Example 1 insecticidal effect (mortality grade) ([1]; 5 ppm): A (Mortality 100%)
Test Example 1 insecticidal effect (mortality grade) ([1]; 50 ppm): A (Mortality 100%)
Test Example 2 insecticidal effect (mortality grade) ([2]; 5 ppm): E (Mortality 49-0%)
Test Example 2 insecticidal effect (mortality grade) ([2]; 50 ppm): A (Mortality 100%)

C[S+]([O-])CC(C)(C)NC(=O)c1c(I)cccc1C(=O)Nc1ccc(Oc2ncc(C(F)(F)F)cc2Cl)cc1Cl (stereo not shown) [Compound 1-96]
Test Example 1 insecticidal effect (mortality grade) ([1]; 5 ppm): A (Mortality 100%)
Test Example 1 insecticidal effect (mortality grade) ([1]; 50 ppm): A (Mortality 100%)
Test Example 2 insecticidal effect (mortality grade) ([2]; 5 ppm): E (Mortality 49-0%)
Test Example 2 insecticidal effect (mortality grade) ([2]; 50 ppm): A (Mortality 100%)

CC(C)(CS(C)(=O)=O)NC(=O)c1c(I)cccc1C(=O)Nc1ccc(Oc2ncc(C(F)(F)F)cc2Cl)cc1Cl [Compound 1-97]
Test Example 1 insecticidal effect (mortality grade) ([1]; 5 ppm): A (Mortality 100%)
Test Example 1 insecticidal effect (mortality grade) ([1]; 50 ppm): A (Mortality 100%)
Test Example 2 insecticidal effect (mortality grade) ([2]; 5 ppm): E (Mortality 49-0%)
Test Example 2 insecticidal effect (mortality grade) ([2]; 50 ppm): A (Mortality 100%)

CSCC(C)(C)NC(=O)c1c(I)cccc1C(=O)Nc1ccc(Oc2ncc(C(F)(F)F)cc2Cl)c(Cl)c1Cl [Compound 1-98]
Test Example 1 insecticidal effect (mortality grade) ([1]; 5 ppm): A (Mortality 100%)
Test Example 1 insecticidal effect (mortality grade) ([1]; 50 ppm): A (Mortality 100%)
Test Example 2 insecticidal effect (mortality grade) ([2]; 5 ppm): E (Mortality 49-0%)
Test Example 2 insecticidal effect (mortality grade) ([2]; 50 ppm): A (Mortality 100%)

CC(C)(CS(C)(=O)=O)NC(=O)c1c(I)cccc1C(=O)Nc1ccc(Oc2ncc(C(F)(F)F)cc2Cl)c(Cl)c1Cl [Compound 1-100]
Test Example 1 insecticidal effect (mortality grade) ([1]; 5 ppm): A (Mortality 100%)
Test Example 1 insecticidal effect (mortality grade) ([1]; 50 ppm): A (Mortality 100%)
Test Example 2 insecticidal effect (mortality grade) ([2]; 5 ppm): E (Mortality 49-0%)
Test Example 2 insecticidal effect (mortality grade) ([2]; 50 ppm): A (Mortality 100%)

CSCC(C)(C)NC(=O)c1c(I)cccc1C(=O)Nc1ccc(SC(F)F)cc1Cl [Compound 1-107]
Test Example 1 insecticidal effect (mortality grade) ([1]; 5 ppm): A (Mortality 100%)
Test Example 1 insecticidal effect (mortality grade) ([1]; 50 ppm): A (Mortality 100%)
Test Example 2 insecticidal effect (mortality grade) ([2]; 5 ppm): E (Mortality 49-0%)
Test Example 2 insecticidal effect (mortality grade) ([2]; 50 ppm): E (Mortality 49-0%)

CSCC(C)(C)NC(=O)c1c(I)cccc1C(=O)Nc1ccc(S(=O)(=O)C(F)(F)F)cc1Cl [Compound 1-111]
Test Example 1 insecticidal effect (mortality grade) ([1]; 5 ppm): A (Mortality 100%)
Test Example 1 insecticidal effect (mortality grade) ([1]; 50 ppm): A (Mortality 100%)
Test Example 2 insecticidal effect (mortality grade) ([2]; 5 ppm): E (Mortality 49-0%)
Test Example 2 insecticidal effect (mortality grade) ([2]; 50 ppm): A (Mortality 100%)

CSCC(C)(C)NC(=O)c1c(I)cccc1C(=O)Nc1ccc(OC(F)(F)F)cc1Cl [Compound A, N^1-[2-chloro-4-(trifluoromethoxy)phenyl]-N^2-(1,1-dimethyl-2-methylthioethyl)-3-iodophthalamide]
mortality at 5 ppm ([3]; 5 ppm): 5%
mortality at 50 ppm ([3]; 50 ppm): 100%
mortality at 500 ppm ([3]; 500 ppm): 100%
Mortality, Highest leaf [4]: 0%
Mortality, Second highest leaf [4]: 95%
Mortality, Third highest leaf [4]: 100%
